Laboratory results taken from ChEMBL document CHEMBL1149980, “Synthesis of rutaecarpine and cytotoxic analogues” (1995).

Legend:
Assay type in all cases: functional
Conditions in all cases: Homo sapiens
[1] = test system: A549; assay: Tested for in vitro cytotoxicity against non-small cell lung cancer cell line A549/ATCC
[2] = test system: OVCAR-4; assay: Tested for in vitro cytotoxicity against ovarian cancer cell line OVCAR-4
[3] = test system: CCRF-CEM; assay: Tested for in vitro cytotoxicity against leukemia cell line CCRF-CEM
[4] = test system: Hs-578T; assay: Tested for in vitro cytotoxicity against breast cancer cell line Hs 578.T
[5] = test system: 786-0; assay: Tested for in vitro cytotoxicity against renal cancer cell line 786-0
[6] = test system: NCI-H460; assay: Tested for in vitro cytotoxicity against non-small cell lung cancer cell line NCI-H460

Q: With `O=c1c2ccccc2nc2n1CCc1c-2[nH]c2ccccc12` [RUTAECARPINE] as the compound, how does the GI50 [1] read?
A: 14.5 µM

Q: What about the GI50 [2] of the same compound?
A: 18.9 µM

Q: And the GI50 [3]?
A: 18.9 µM

Q: And the GI50 [4]?
A: 22.6 µM

Q: How did the GI50 [1] turn out when `COc1ccc2[nH]c3c(c2c1)CCn1c-3nc2ccccc2c1=O` was run?
A: > 25 µM

Q: And the GI50 [2]?
A: > 25 µM

Q: And the GI50 [3]?
A: > 25 µM

Q: And the GI50 [4]?
A: > 25 µM

Q: What about the GI50 [5] of the same compound?
A: > 25 µM

Q: And the GI50 [6]?
A: > 25 µM

Q: Which results are given for `COc1ccc2c3c([nH]c2c1)-c1nc2ccccc2c(=O)n1CC3`?
A: GI50 [1]: 0.75 µM; GI50 [2]: > 25 µM; GI50 [3]: > 25 µM; GI50 [4]: 1.59 µM; GI50 [5]: 0.31 µM; GI50 [6]: 1.38 µM

Q: With `O=c1c2ccccc2nc2n1CCc1c-2[nH]c2cc3c(cc12)OCO3` as the compound, how does the GI50 [1] read?
A: > 25 µM

Q: And the GI50 [2]?
A: 1.5 µM

Q: And the GI50 [3]?
A: > 25 µM

Q: And the GI50 [4]?
A: 5.05 µM

Q: What about the GI50 [5] of the same compound?
A: 1.08 µM

Q: And the GI50 [6]?
A: 1.55 µM
